Target: Dual specificity tyrosine-phosphorylation-regulated kinase 1A (Homo sapiens, UniProt Q13627)
Assay: Inhibition of GST-tagged human DYRK1A using dephosphorylated MBP as substrate after 10 mins by Kinase-Glo plus luminescent kinase assay

Work on O=C(O[C@@H]1Cc2c(O)cc(O)cc2O[C@@H]1c1cc(O)c(O)c(O)c1)c1cc(O)c(O)c(O)c1 [EPIGALOCATECHIN GALLATE] yielded an IC50 of 13.4 µM.
